Measured values from patent publication US20150045610A1, “METHOD OF MODIFYING SPERMATOGENESIS, SPERMIOGENESIS AND/OR FERTILITY IN MAMMALS” (Monell Chemical Senses Center, priority 2012, published 2015).
“Also recorded” adds a separate entry of the source.

How the values were obtained:
human T1R3 receptor = target: T1, human T1R3 receptor (Homo sapiens, UniProt Q7RTX0); details: cited from earlier work
T1 construct: expressed in transfected cells
T1 sequence (Q7RTX0 21-852): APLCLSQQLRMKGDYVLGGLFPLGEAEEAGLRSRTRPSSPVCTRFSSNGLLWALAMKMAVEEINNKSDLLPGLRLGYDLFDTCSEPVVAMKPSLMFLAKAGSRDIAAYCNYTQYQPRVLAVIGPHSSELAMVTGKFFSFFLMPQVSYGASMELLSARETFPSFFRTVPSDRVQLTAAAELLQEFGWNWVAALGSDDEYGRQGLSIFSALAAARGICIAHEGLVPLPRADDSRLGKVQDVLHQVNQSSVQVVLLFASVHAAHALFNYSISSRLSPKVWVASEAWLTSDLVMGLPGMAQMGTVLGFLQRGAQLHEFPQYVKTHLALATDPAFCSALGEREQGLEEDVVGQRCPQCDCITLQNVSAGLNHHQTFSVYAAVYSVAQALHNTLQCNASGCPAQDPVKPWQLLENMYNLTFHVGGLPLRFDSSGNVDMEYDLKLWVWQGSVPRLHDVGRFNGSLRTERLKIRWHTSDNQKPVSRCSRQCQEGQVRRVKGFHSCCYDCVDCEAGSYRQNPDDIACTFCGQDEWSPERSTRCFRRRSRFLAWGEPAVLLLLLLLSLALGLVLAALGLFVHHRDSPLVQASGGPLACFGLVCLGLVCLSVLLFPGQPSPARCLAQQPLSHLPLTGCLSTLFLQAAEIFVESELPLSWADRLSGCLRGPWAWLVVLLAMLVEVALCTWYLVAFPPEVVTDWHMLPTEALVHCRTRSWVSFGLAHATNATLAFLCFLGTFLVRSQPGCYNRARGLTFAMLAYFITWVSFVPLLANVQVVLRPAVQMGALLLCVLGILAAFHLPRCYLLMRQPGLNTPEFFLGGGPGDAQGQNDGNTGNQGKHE
T1 sequence (Q8TE23 20-839 partner): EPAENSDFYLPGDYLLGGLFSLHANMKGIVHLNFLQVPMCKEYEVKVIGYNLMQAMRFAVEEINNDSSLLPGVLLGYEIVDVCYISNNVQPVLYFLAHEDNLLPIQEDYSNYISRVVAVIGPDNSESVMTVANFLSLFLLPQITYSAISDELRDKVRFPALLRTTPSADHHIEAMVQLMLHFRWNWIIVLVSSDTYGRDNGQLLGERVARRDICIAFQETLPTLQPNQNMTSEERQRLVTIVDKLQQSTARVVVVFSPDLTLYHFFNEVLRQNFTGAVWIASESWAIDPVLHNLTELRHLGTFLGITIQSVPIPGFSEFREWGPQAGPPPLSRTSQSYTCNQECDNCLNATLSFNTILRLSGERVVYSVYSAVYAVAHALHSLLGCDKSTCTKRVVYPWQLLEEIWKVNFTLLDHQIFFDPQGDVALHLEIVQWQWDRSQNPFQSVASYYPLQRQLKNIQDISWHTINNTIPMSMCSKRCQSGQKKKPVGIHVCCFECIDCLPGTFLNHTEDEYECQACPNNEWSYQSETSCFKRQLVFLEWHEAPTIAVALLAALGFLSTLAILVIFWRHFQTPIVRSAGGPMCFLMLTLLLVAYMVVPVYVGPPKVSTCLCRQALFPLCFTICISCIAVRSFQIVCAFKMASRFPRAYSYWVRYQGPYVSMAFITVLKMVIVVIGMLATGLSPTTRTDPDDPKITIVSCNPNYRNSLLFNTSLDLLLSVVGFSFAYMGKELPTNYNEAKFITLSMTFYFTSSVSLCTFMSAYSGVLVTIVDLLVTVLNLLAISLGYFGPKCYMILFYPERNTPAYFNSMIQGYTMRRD

sperm = sperm motility in vitro; assay type: cell-based, mouse; details: sperm of WT and mutant mice, clofibric acid in media (2 mM elsewhere in the source)
Text: We observed spermatozoa after clofibrate treatment represent cells that were able to escape the inhibition of clofibric acid, most likely due to very fast clearance and fluctuating levels in rodents. This allows some tubular cells to complete the developmental cycle. Therefore, we measured sperm concentration as an indicator of efficiency of the pharmacological block and to be able to determine the concentration that results in effective sterility. We analyzed testicular morphology, sperm production, sperm motility and sperm function in in vitro fertilization after feeding these animals with the lipid lowering drug clofibrate. We tested an acute inhibition of sperm motility and function in vitro by incubating sperm from the engineered mice (mGus−/−, mT1R3−/−, hmT1R3+) in solutions containing clofibric acid or other T1R3 inhibitors. The concentration used was similar to the one used in human treatment with fibrates (˜0.03 g/kg weight, for 3 weeks). We tested sperm motility and function in vitro of the Gα-gustducin KO mice (missing only the Gα-gustducin gene (mGus−/−)) after blocking T1R3 receptors with the rodent specific inhibitor gurmarin (3 mg/ml).
We evaluated the residual sperm that was produced by the line 7c mice in more detail. […] From all the above results, the combined lack of T1R3 and α-gustducin exerted its effect primarily at the level of developing spermatocytes in testis.

For `CC(C)(Oc1ccc(Cl)cc1)C(=O)O` [clofibric acid], the “T1R3 inhibition compared with PPAR-α activation” value (human T1R3 receptor) is given as “comparable to their activation of PPAR-α” and the sperm motility (sperm) is given as “no differences; also recorded: not affected”.
